The values below come from US20230086703A1, “N-(4-(5-chloropyridin-3-yl)phenyl)-2-(2-(cyclopropanesulfonamido)pyrimidin-4-yl) butanamide derivatives and related compounds as human CTPS1 inhibitors for the treatment of proliferative diseases” (Step Pharma S.A.S., priority 2019, published 2023).

The target in one assay is T1, human CTPS1 (Homo sapiens, UniProt P17812).
T1 construct: FLAG (with GG linker); His8 (with GG linker); purchased Proteros biostructures GmbH
T1 sequence (P17812 1-591): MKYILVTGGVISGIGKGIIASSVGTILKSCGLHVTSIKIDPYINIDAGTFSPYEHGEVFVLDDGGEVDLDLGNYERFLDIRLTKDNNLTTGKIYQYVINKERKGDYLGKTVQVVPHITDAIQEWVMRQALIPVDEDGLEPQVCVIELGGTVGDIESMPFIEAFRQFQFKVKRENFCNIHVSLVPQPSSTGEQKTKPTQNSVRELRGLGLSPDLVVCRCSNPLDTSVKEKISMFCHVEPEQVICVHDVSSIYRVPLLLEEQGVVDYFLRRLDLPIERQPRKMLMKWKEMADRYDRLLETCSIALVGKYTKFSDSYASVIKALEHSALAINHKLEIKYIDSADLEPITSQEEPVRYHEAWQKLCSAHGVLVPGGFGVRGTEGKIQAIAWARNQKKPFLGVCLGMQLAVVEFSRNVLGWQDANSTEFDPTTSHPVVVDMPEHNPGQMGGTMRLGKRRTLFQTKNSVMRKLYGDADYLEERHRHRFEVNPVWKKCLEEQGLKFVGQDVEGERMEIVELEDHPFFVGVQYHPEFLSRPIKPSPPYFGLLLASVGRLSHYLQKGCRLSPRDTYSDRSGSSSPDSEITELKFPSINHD
Briefly: Human CTPS1 enzyme inhibition, ADP-Glo Max assay. It counts as biochemical. The following applies: ADP-Glo Max assay. In short, it runs like this: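 Read-out is ADP-Glo Max luminescence: residual ATP depleted (60 min), then produced ADP converted back to ATP for luciferase detection (60 min). Beforehand, protein and compound were mixed for 10 min at 25 °C in Tris buffer pH 8.0 with MgCl2, Tween-20 and 2 mM L-cysteine. Results expressed as percentage inhibition per concentration.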
(In general: ADP-Glo first removes unused ATP, then detects ADP through luciferase.)
Turning to `CCOc1cncc(-c2ccc(CNC(C)(C)c3csc(NS(=O)(=O)C4CC4)n3)c(F)c2)n1` [R94, N-(4-(2-((4-(6-Ethoxypyrazin-2-yl)-2-fluorobenzyl)amino)propan-2-yl)thiazol-2-yl)cyclopropanesulfonamide], the “inhibition of CTPS1 enzyme (result in words)” value was “activity is retained”.

The same assay, now with this note: ADP-Glo Max assay; Table 10; read-out: Human CTPS1 Enzyme Inhibition, IC50 grouped by potency range (CTPS1).
Consider `COc1cc(-c2cccnc2)ccc1NC(=O)C(C)(C)c1csc(NS(=O)(=O)C2CC2)n1` [T149, 2-(2-(cyclopropanesulfonamido)thiazol-4-yl)-N-(2-methoxy-4-(pyridin-3-yl)phenyl)-2-methylpropanamide], for which the IC50 is below 100 nM. With `Cc1ccncc1-c1ccc(NC(=O)Cc2csc(NS(=O)(=O)C3CC3)n2)cc1` [T98, 2-(2-(cyclopropanesulfonamido)thiazol-4-yl)-N-(4-(4-methylpyridin-3-yl)phenyl)acetamide], the IC50 was 100 to 1000 nM. As for `CCOc1cncc(-c2cnc(NC(=O)C(C)(C)c3csc(NS(=O)(=O)C4CC4)n3)c(F)c2)n1` [T111, 2-(2-(cyclopropanesulfonamido)thiazol-4-yl)-N-(5-(6-ethoxypyrazin-2-yl)-3-fluoropyridin-2-yl)-2-methylpropanamide], the IC50 is below 100 nM. As to `CC(C)Oc1cncc(-c2ccc(NC(=O)C(C)(C)c3csc(NS(=O)(=O)C4CC4)n3)cc2)c1` [T158, 2-(2-(cyclopropanesulfonamido)thiazol-4-yl)-N-(4-(5-isopropoxypyridin-3-yl)phenyl)-2-methylpropanamide], the IC50 is below 100 nM.

Turning to `CC(C)(C(=O)Nc1ccc(-c2cncc(F)c2)cn1)c1csc(NS(=O)(=O)C2CC2)n1` [T261, 2-(2-(cyclopropanesulfonamido)thiazol-4-yl)-N-(5′-fluoro-[3,3′-bipyridin]-6-yl)-2-methylpropanamide], the IC50 was below 100 nM. Regarding `CC(C)(C(=O)Nc1ccc(-c2cccnc2)cc1)c1csc(NS(C)(=O)=O)n1` [T163, 2-methyl-2-(2-(methylsulfonamido)thiazol-4-yl)-N-(4-(pyridin-3-yl)phenyl)propanamide], the IC50 was 100 to 1000 nM. As for `CC(C)Oc1cncc(-c2ccc(NC(=O)C(C)(C)c3csc(NS(=O)(=O)C4CC4)n3)c(F)c2)c1` [T159, 2-(2-(cyclopropanesulfonamido)thiazol-4-yl)-N-(2-fluoro-4-(5-isopropoxypyridin-3-yl)phenyl)-2-methylpropanamide], the IC50 is below 100 nM.

For the compound `COc1cncc(-c2cnc(NC(=O)C(C)(C)c3csc(NS(=O)(=O)C4CC4)n3)nc2)c1` [T292, 2-(2-(cyclopropanesulfonamido)thiazol-4-yl)-N-(5-(5-methoxypyridin-3-yl)pyrimidin-2-yl)-2-methylpropanamide], the IC50 fell in the range of 100 to 1000 nM.

Turning to `CC(C)(C(=O)Nc1ccc(-c2cccc(OC(F)(F)F)c2)cn1)c1csc(NS(=O)(=O)C2CC2)n1` [T236, 2-(2-(cyclopropanesulfonamido)thiazol-4-yl)-2-methyl-N-(5-(3-(trifluoromethoxy)phenyl)pyridin-2-yl)propanamide], the IC50 was in the range of 100 to 1000 nM. Turning to `CC(C)(C(=O)Nc1ccc(-c2ccccc2)cc1)c1csc(NS(=O)(=O)C2CC2)n1` [T97, N-([1,1′-biphenyl]-4-yl)-2-(2-(cyclopropanesulfonamido)thiazol-4-yl)-2-methylpropanamide], the IC50 was 100 to 1000 nM. On the same count and under the same terms, to `CCOc1cncc(-c2ccc(NC(=O)Cc3csc(NS(=O)(=O)C4CC4)n3)cc2)n1` [T424, 2-(2-(cyclopropanesulfonamido)thiazol-4-yl)-N-(4-(6-ethoxypyrazin-2-yl)phenyl)acetamide] belongs below 100 nM; to `CC(C)(C(=O)Nc1ccc(-c2cncc(OCC(F)(F)F)c2)cc1F)c1csc(NS(=O)(=O)C2CC2)n1` [T132, 2-(2-(cyclopropanesulfonamido)thiazol-4-yl)-N-(2-fluoro-4-(5-(2,2,2-trifluoroethoxy)pyridin-3-yl)phenyl)-2-methylpropanamide], 100 to 1000 nM; to `CC(C)(C(=O)Nc1ccc(-c2cccnc2C(F)(F)F)cc1)c1csc(NS(=O)(=O)C2CC2)n1` [T248, 2-(2-(cyclopropanesulfonamido)thiazol-4-yl)-2-methyl-N-(4-(2-(trifluoromethyl)pyridin-3-yl)phenyl)propanamide], 1000 to 10000 nM.

Take `CC(C)(C(=O)Nc1ncc(-c2cncc(F)c2)cc1F)c1csc(NS(=O)(=O)C2CC2)n1` [T230, 2-(2-(cyclopropanesulfonamido)thiazol-4-yl)-N-(5,5′-difluoro-[3,3′-bipyridin]-6-yl)-2-methylpropanamide]: the IC50 was below 100 nM.

With `COc1ncccc1-c1ccc(NC(=O)C(C)(C)c2csc(NS(=O)(=O)C3CC3)n2)cc1` [T44, 2-(2-(cyclopropanesulfonamido)thiazol-4-yl)-N-(4-(2-methoxypyridin-3-yl)phenyl)-2-methylpropanamide], the IC50 fell in the range of 100 to 1000 nM. With `COc1cc(-c2cncc(C(F)(F)F)c2)ccc1NC(=O)C(C)(C)c1csc(NS(=O)(=O)C2CC2)n1` [T259, 2-(2-(cyclopropanesulfonamido)thiazol-4-yl)-N-(2-methoxy-4-(5-(trifluoromethyl)pyridin-3-yl)phenyl)-2-methylpropanamide], the IC50 was below 100 nM. Same read-out and setting: to `COc1ccc(-c2ccc(NC(=O)C(C)(C)c3csc(NS(=O)(=O)C4CC4)n3)cc2)cn1` [T46, 2-(2-(cyclopropanesulfonamido)thiazol-4-yl)-N-(4-(6-methoxypyridin-3-yl)phenyl)-2-methylpropanamide] belongs 1000 to 10000 nM. On to `CCOc1cncc(-c2ccc(NC(=O)C(F)(F)c3csc(NS(=O)(=O)C4CC4)n3)nc2)n1` [T422, 2-(2-(cyclopropanesulfonamido)thiazol-4-yl)-N-(5-(6-ethoxypyrazin-2-yl)pyridin-2-yl)-2,2-difluoroacetamide], for which the IC50 was in the range of 100 to 1000 nM. For the compound `COc1cc(-c2cncc(C)c2)ccc1NC(=O)C(C)(C)c1csc(NS(=O)(=O)C2CC2)n1` [T258, 2-(2-(cyclopropanesulfonamido)thiazol-4-yl)-N-(2-methoxy-4-(5-methylpyridin-3-yl)phenyl)-2-methylpropanamide], the IC50 was in the range of 100 to 1000 nM.

Turning to `CC(C)(C(=O)Nc1ccc(-c2cncc(OC3CCC3)n2)cc1)c1csc(NS(=O)(=O)C2CC2)n1` [T54, N-(4-(6-cyclobutoxypyrazin-2-yl)phenyl)-2-(2-(cyclopropanesulfonamido)thiazol-4-yl)-2-methylpropanamide], the IC50 lay within 100 to 1000 nM. Take `CC(C)(C(=O)Nc1ccc(-c2cncc(C#N)c2)cn1)c1csc(NS(=O)(=O)C2CC2)n1` [T226, N-(5′-cyano-[3,3′-bipyridin]-6-yl)-2-(2-(cyclopropanesulfonamido)thiazol-4-yl)-2-methylpropanamide]: the IC50 is below 100 nM.

For `COc1ccccc1-c1ccc(NC(=O)Cc2csc(NS(=O)(=O)C3CC3)n2)cc1` [T246, 2-(2-(cyclopropanesulfonamido)thiazol-4-yl)-N-(2′-methoxy-[1,1′-biphenyl]-4-yl)acetamide], the IC50 was in the range of 100 to 1000 nM.

For the compound `CN(C(=O)C(C)(C)c1csc(NS(=O)(=O)C2CC2)n1)c1ccc(-c2cncc(Cl)c2)cc1` [T318, N-(4-(5-chloropyridin-3-yl)phenyl)-2-(2-(cyclopropanesulfonamido)thiazol-4-yl)-N,2-dimethylpropanamide], the IC50 was in the range of 1000 to 10000 nM. On the same count and under the same terms, the result for `CC(C)(C(=O)Nc1ccc(-c2cncc(C(F)(F)F)c2)cc1)c1csc(NS(=O)(=O)C2CC2)n1` [T48, 2-(2-(cyclopropanesulfonamido)thiazol-4-yl)-2-methyl-N-(4-(5-(trifluoromethyl)pyridin-3-yl)phenyl)propanamide] reads below 100 nM; that for `O=C(Cc1csc(NS(=O)(=O)C2CC2)n1)Nc1ccc(-c2cnccn2)cc1` [T82, 2-(2-(cyclopropanesulfonamido)thiazol-4-yl)-N-(4-(pyrazin-2-yl)phenyl)acetamide], below 100 nM. Still for that read-out and setting: the result for `Cc1cncc(-c2ccc(NC(=O)C(C)(C)c3csc(NS(=O)(=O)C4CC4)n3)nc2)n1` [T464, 2-(2-(cyclopropanesulfonamido)thiazol-4-yl)-2-methyl-N-(5-(6-methylpyrazin-2-yl)pyridin-2-yl)propanamide] reads below 100 nM; that for `CCC(CC)(C(=O)Nc1ccc(-c2cncc(C(F)(F)F)n2)cn1)c1csc(NS(=O)(=O)C2CC2)n1` [T147, 2-(2-(cyclopropanesulfonamido)thiazol-4-yl)-2-ethyl-N-(5-(6-(trifluoromethyl)pyrazin-2-yl)pyridin-2-yl)butanamide], below 100 nM.

The same assay, now with this note: Table 12, ADP-Glo Max assay; read-out: CTPS1 (Human CTPS1 Enzyme Inhibition data grouped by potency range).
In the case of `CCOc1cncc(-c2ccc(NC(=O)C3(c4ccnc(NS(=O)(=O)C5CC5)n4)CCC(N)CC3)nc2)n1` (stereo not shown) [P304], the IC50 is below 100 nM. As to `CCOc1cncc(-c2ccc(NC(=O)C3(c4ccnc(NS(=O)(=O)CC)n4)CCN(C(=O)COC)CC3)nc2)n1` [P296], the IC50 was below 100 nM.

Still in this assay, the particulars now being: Table 14, ADP-Glo Max assay; read-out: CTPS1 (Human CTPS1 Enzyme Inhibition data grouped by potency range).
For the compound `CCOc1cncc(-c2ccc(CNC(C)(C)c3csc(NS(=O)(=O)C4CC4)n3)c(F)c2)n1` [R94, N-(4-(2-((4-(6-Ethoxypyrazin-2-yl)-2-fluorobenzyl)amino)propan-2-yl)thiazol-2-yl)cyclopropanesulfonamide], the IC50 was below 100 nM.
